In US4404201A, “Cephalosporins” (Warner-Lambert Company, priority 1981, dated 1983) one finds MIC data, which are given here for 8 compounds.

A word on the MIC: it is the smallest concentration in the dilution series that meets the test's criterion for growth inhibition.

Type in all cases: cell-based
In one experiment the test system is Pseudomonas #28. The experiment in a line: Minimal Inhibitory Concentration, Pseudomonas #28. The note with it: sodium salt.
In another experiment the test system is Pseudomonas BRK 12-4-4. In words: Minimal Inhibitory Concentration, Pseudomonas BRK 12-4-4. The note with it: BRK1244, sodium salt.
The subject of a further experiment is Pseudomonas UI 18. The experiment in a line: Minimal Inhibitory Concentration, Pseudomonas UI 18. Particulars: UI18, sodium salt.
The test system of another experiment is E. Coli Brig. In words: Minimal Inhibitory Concentration, E. Coli Brig. The note with it: Escherichia coli, sodium salt.
The subject of another experiment is E. Coli Vogel. The experiment in a line: Minimal Inhibitory Concentration, E. Coli Vogel. Particulars: Escherichia coli, sodium salt.
Another experiment relates to Prot Vulg. In words: Minimal Inhibitory Concentration, Prot Vulg. Particulars: sodium salt.
Another experiment concerns Entero Cloac. IM 11. The experiment in a line: Minimal Inhibitory Concentration, Entero Cloac. IM 11. Particulars: sodium salt.
The test system of another experiment is Serr. Mar. IMM 16. The experiment in a line: Minimal Inhibitory Concentration, Serr. Mar. IMM 16. Particulars: sodium salt.
The subject of a further experiment is Klebs. Pneum. MGH 2. In words: Minimal Inhibitory Concentration, Klebs. Pneum. MGH 2. The note with it: sodium salt.
The subject of a further experiment is Strep. fec. MGH 2. The experiment in a line: Minimal Inhibitory Concentration, Strep. fec. MGH 2. The note with it: sodium salt.
The test system of another experiment is Staph UC76. The experiment in a line: Minimal Inhibitory Concentration, Staph UC76. The note with it: sodium salt.
In another experiment the test system is Staph S 18713. In words: Minimal Inhibitory Concentration, Staph S 18713. The note with it: sodium salt.

Structures are written as SMILES.

In the case of `CC(=O)N[C@@H](CCC(N)=O)C(=O)Nc1ccc2c(=O)c(C(=O)N[C@@H](C(=O)NC3C(=O)N4C(C(=O)O)=C(COC(C)=O)CSC34)c3ccc(O)cc3)c[nH]c2c1` (stereo partly drawn) [Example 4, N-[7-[[L-2-(Acetylamino)-5-amino-1,5-dioxopentyl]amino]-1,4-dihydro-4-oxo-3-quinolinylcarbonyl]-7-[D-2-amino-2-(4-hydroxyphenyl)acetamido]-3-acetoxymethyl-3-cephem-4-carboxylic acid], the minimal inhibitory concentration (MIC) is 3.1 µg/mL in the experiment on Pseudomonas #28; 6.3 µg/mL in the experiment with Pseudomonas BRK 12-4-4; 12.5 µg/mL in the experiment with Pseudomonas UI 18; greater than 50 µg/mL in the experiment with E. Coli Brig; 0.8 µg/mL with E. Coli Vogel; 6.3 µg/mL in the experiment on Prot Vulg.. Moreover, the MIC in the experiment with Entero Cloac. IM 11 was 12.5 µg/mL; with Serr. Mar. IMM 16, greater than 50 µg/mL; in the experiment on Klebs. Pneum. MGH 2, 3.1 µg/mL; in the experiment on Strep. fec. MGH 2, 25 µg/mL; in the experiment on Staph UC76, 3.1 µg/mL; in the experiment on Staph S 18713, 6.3 µg/mL.
Take `CC(=O)N[C@@H](C)C(=O)Nc1ccc2[nH]c(=O)c(C(=O)N[C@@H](C(=O)NC3C(=O)N4C(C(=O)O)=C(COC(C)=O)CSC34)c3ccc(O)cc3)cc2c1` (stereo partly drawn) [Example 8, N-[6-[[L-2-(Acetylamino)-1-oxopropyl]amino]-1,2-dihydro-2-oxo-3-quinolinylcarbonyl]-7-[D-2-amino-2-(4-hydroxyphenyl)acetamido]-3-acetoxymethyl-3-cephem-4-carboxylic acid]: the MIC in the experiment on Pseudomonas #28 worked out at 3.1 µg/mL; with Pseudomonas BRK 12-4-4 it was 6.3 µg/mL; with Pseudomonas UI 18, 3.1 µg/mL; with E. Coli Brig, 50 µg/mL; in the experiment on E. Coli Vogel, 6.3 µg/mL; in the experiment with Prot Vulg., 25 µg/mL. Moreover, the MIC in the experiment on Entero Cloac. IM 11 is 25 µg/mL; with Serr. Mar. IMM 16, greater than 50 µg/mL; in the experiment with Klebs. Pneum. MGH 2, 25 µg/mL; in the experiment on Staph UC76, 3.1 µg/mL; in the experiment on Staph S 18713 it was 6.3 µg/mL.
For `CC(=O)N[C@@H](C)C(=O)Nc1ccc2c(=O)c(C(=O)N[C@@H](C(=O)NC3C(=O)N4C(C(=O)O)=C(CSc5nnnn5C)CSC34)c3ccc(O)cc3)c[nH]c2c1` (stereo partly drawn) [Example 2, N-[7-[[L-2-(Acetylamino)-1-oxopropyl]amino]-1,4-dihydro-4-oxo-3-quinolinylcarbonyl]-7-[D-2-amino-2-(4-hydroxyphenyl)acetamido]-3-[[(1-methyl-1H-tetrazol-5-yl)thio]methyl]-3-cephem-4-carboxylic acid], the minimum inhibitory concentration (MIC) in the experiment on Pseudomonas #28 was 3.1 µg/mL; in the experiment with Pseudomonas BRK 12-4-4 it was 3.1 µg/mL; in the experiment on Pseudomonas UI 18, 6.3 µg/mL; in the experiment with E. Coli Brig, greater than 50 µg/mL; in the experiment on E. Coli Vogel, 0.4 µg/mL; in the experiment on Prot Vulg., 3.1 µg/mL. In addition, the minimum inhibitory concentration (MIC) was 3.1 µg/mL in the experiment on Entero Cloac. IM 11; 0.3 µg/mL in the experiment with Serr. Mar. IMM 16; 0.4 µg/mL in the experiment with Klebs. Pneum. MGH 2; 25 µg/mL with Strep. fec. MGH 2; 3.1 µg/mL with Staph UC76; 6.3 µg/mL in the experiment with Staph S 18713.
Regarding `CC(=O)N[C@@H](C)C(=O)Nc1ccc2c(=O)c(C(=O)N[C@@H](C(=O)NC3C(=O)N4C(C(=O)O)=C(COC(C)=O)CSC34)c3ccc(O)cc3)c[nH]c2c1` (stereo partly drawn) [Example 3, N-[7-[[L-2-(Acetylamino)-1-oxopropyl]amino]-1,4-dihydro-4-oxo-3-quinolinylcarbonyl]-7-[D-2-amino-2-(4-hydroxyphenyl)acetamido]-3-acetoxymethyl-3-cephem-4-carboxylic acid], the minimal inhibitory concentration (MIC) was found to be 3.1 µg/mL with Pseudomonas #28; 6.3 µg/mL in the experiment with Pseudomonas BRK 12-4-4; 3.1 µg/mL in the experiment with Pseudomonas UI 18; 12.5 µg/mL in the experiment on E. Coli Brig; 1.6 µg/mL in the experiment with E. Coli Vogel; 6.3 µg/mL in the experiment with Prot Vulg.. Further, the MIC is 12.5 µg/mL in the experiment on Entero Cloac. IM 11; 50 µg/mL in the experiment on Serr. Mar. IMM 16; 1.6 µg/mL with Klebs. Pneum. MGH 2; 25 µg/mL in the experiment on Strep. fec. MGH 2; 3.1 µg/mL with Staph UC76; 6.3 µg/mL in the experiment on Staph S 18713.
`CC(=O)N[C@@H](C)C(=O)Nc1ccc2c(=O)c(C(=O)N[C@@H](C(=O)NC3C(=O)N4C(C(=O)O)=C(CSc5nnnn5CS(=O)(=O)O)CSC34)c3ccccc3)c[nH]c2c1` (stereo partly drawn) [Example 1, N-[7-[[L-2-(Acetylamino)-1-oxopropyl]amino]-1,4-dihydro-4-oxo-3-quinolinylcarbonyl]-7-[D-2-amino-2-phenylacetamido]-3-[[(1-sulfomethyl-1H-tetrazol-5-yl)thio]methyl]-3-cephem-4-carboxylic acid]: the MIC in the experiment on Pseudomonas #28 was 3.1 µg/mL; in the experiment with Pseudomonas BRK 12-4-4, 6.3 µg/mL; in the experiment with Pseudomonas UI 18, 3.1 µg/mL; in the experiment on E. Coli Brig, greater than 50 µg/mL; in the experiment with E. Coli Vogel it was 0.8 µg/mL; in the experiment on Prot Vulg., 0.8 µg/mL. Further, the minimum inhibitory concentration (MIC) in the experiment with Entero Cloac. IM 11 was 6.3 µg/mL; in the experiment on Serr. Mar. IMM 16 it was 3.2 µg/mL; in the experiment on Klebs. Pneum. MGH 2 it was 0.8 µg/mL; with Strep. fec. MGH 2 it was greater than 50 µg/mL; with Staph UC76, 6.3 µg/mL; in the experiment with Staph S 18713, 12.5 µg/mL.
For `CC(=O)N[C@@H](CCC(N)=O)C(=O)Nc1ccc2c(=O)c(C(=O)N[C@@H](C(=O)NC3C(=O)N4C(C(=O)O)=C(CSc5nnnn5C)CSC34)c3ccc(O)cc3)c[nH]c2c1` (stereo partly drawn) [Example 5, N-[7-[[L-2-(Acetylamino)-5-amino-1,5-dioxopentyl]amino]-1,4-dihydro-4-oxo-3-quinolinylcarbonyl]-7-[D-2-amino-2-(4-hydroxyphenyl)acetamido]-3-[[(1-methyl-1H-tetrazol-5-yl)thio]methyl]-3-cephem-4-carboxylic acid], the MIC in the experiment on Pseudomonas #28 is 3.1 µg/mL; in the experiment on Pseudomonas BRK 12-4-4 it was 6.3 µg/mL; in the experiment on Pseudomonas UI 18, 6.3 µg/mL; with E. Coli Brig, greater than 50 µg/mL; with E. Coli Vogel, 0.4 µg/mL; in the experiment with Prot Vulg. it was 3.1 µg/mL. The minimal inhibitory concentration (MIC) was 3.1 µg/mL with Entero Cloac. IM 11; 6.3 µg/mL with Serr. Mar. IMM 16; 0.8 µg/mL with Klebs. Pneum. MGH 2; 25 µg/mL in the experiment on Strep. fec. MGH 2; 3.1 µg/mL with Staph UC76; 6.3 µg/mL in the experiment on Staph S 18713.
Consider `CC(=O)N[C@@H](C)C(=O)Nc1ccc2[nH]cc(C(=O)N[C@@H](C(=O)NC3C(=O)N4C(C(=O)O)=C(CSc5nnnn5C)CSC34)c3ccccc3)c(=O)c2c1` (stereo partly drawn) [Example 7, N-[6-[[L-2-(Acetylamino)-1-oxopropyl]amino]-1,4-dihydro-4-oxo-3-quinolinylcarbonyl]-7-[D-2-amino-2-phenylacetamido]-3-[[(1-methyl-1H-tetrazol-5-yl)thio]methyl]-3-cephem-4-carboxylic acid], for which the minimum inhibitory concentration (MIC) was determined as 6.3 µg/mL in the experiment with Pseudomonas #28; 12.5 µg/mL in the experiment with Pseudomonas BRK 12-4-4; 6.3 µg/mL with Pseudomonas UI 18; 12.5 µg/mL in the experiment on E. Coli Brig; 1.6 µg/mL in the experiment on E. Coli Vogel; 3.1 µg/mL in the experiment on Prot Vulg.. Also, the MIC with Entero Cloac. IM 11 was 12.5 µg/mL; in the experiment with Serr. Mar. IMM 16, 25 µg/mL; with Klebs. Pneum. MGH 2, 3.1 µg/mL; in the experiment on Staph UC76, 1.6 µg/mL; with Staph S 18713 it was 6.3 µg/mL.
`Cn1nnnc1SCC1=C(C(=O)O)N2C(=O)C(NC(=O)[C@H](NC(=O)c3c[nH]c4cc(NC(=O)[C@@H]5CCC(=O)N5)ccc4c3=O)c3ccccc3)C2SC1` (stereo partly drawn) [Example 6, N-[1,4-Dihydro-4-oxo-7-[[(L-5-oxo-2-pyrrolidinyl)carbonyl]amino]-3-quinolinylcarbonyl]-7-[D-2-amino-2-phenylacetamido]-3-[[(1-methyl-1H-tetrazol-5-yl)thio]methyl]-3-cephem-4-carboxylic acid]: the MIC in the experiment with Pseudomonas #28 was found to be 6.3 µg/mL; in the experiment on Pseudomonas BRK 12-4-4, 12.5 µg/mL; in the experiment with Pseudomonas UI 18, 12.5 µg/mL; in the experiment with E. Coli Brig, 6.3 µg/mL; in the experiment with E. Coli Vogel, 0.8 µg/mL; in the experiment with Prot Vulg., 6.3 µg/mL. The minimal inhibitory concentration (MIC) in the experiment with Entero Cloac. IM 11 turned out to be 6.3 µg/mL; in the experiment on Serr. Mar. IMM 16, 25 µg/mL; in the experiment with Klebs. Pneum. MGH 2, 1.6 µg/mL; in the experiment on Staph UC76, 0.8 µg/mL; with Staph S 18713 it was 3.1 µg/mL.
